{"source": "the supplement of paper PMC10307832", "assay_in_all_cases": "relative viability (nuclei count vs DMSO), 5 days (fraction); higher = more cells survive", "key": {"A-427": {"tested_on": "A-427", "procedure,_shortened": "(§1)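 Values are medians from duplicate plates. Each reflects relative viability, defined as the nuclei count of treated wells over that of vehicle wells. Lung cancer cell lines in 1536-well plates were pin-tool dosed one day after seeding with one drug alone or with a fixed anchor-drug dose plus five library-drug doses (not always all listed) in √10 steps, then fixed, stained and imaged at 4× after 5 days.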"}, "NCI-H2126": {"tested_on": "NCI-H2126", "procedure,_shortened": "as §1"}, "NCI-H460": {"tested_on": "NCI-H460", "procedure,_shortened": "as §1"}, "ChaGo-K-1": {"tested_on": "ChaGo-K-1", "procedure,_shortened": "as §1"}, "NCI-H1648": {"tested_on": "NCI-H1648", "procedure,_shortened": "as §1"}, "NCI-H441": {"tested_on": "NCI-H441", "procedure,_shortened": "as §1"}, "NCI-H1993": {"tested_on": "NCI-H1993", "procedure,_shortened": "as §1"}, "RERF-LC-KJ": {"tested_on": "RERF-LC-KJ", "procedure,_shortened": "as §1"}, "HCC-44": {"tested_on": "HCC-44", "procedure,_shortened": "as §1"}, "NCI-H650": {"tested_on": "NCI-H650", "procedure,_shortened": "as §1"}, "SW 1573": {"tested_on": "SW 1573", "procedure,_shortened": "as §1"}, "201T": {"tested_on": "201T", "procedure,_shortened": "as §1"}, "LCLC-97TM1": {"tested_on": "LCLC-97TM1", "procedure,_shortened": "as §1"}, "NCI-H1734": {"tested_on": "NCI-H1734", "procedure,_shortened": "as §1"}, "COR-L23": {"tested_on": "COR-L23", "procedure,_shortened": "as §1"}, "HCC-366": {"tested_on": "HCC-366", "procedure,_shortened": "as §1"}, "LOU-NH91": {"tested_on": "LOU-NH91", "procedure,_shortened": "as §1"}, "NCI-H1650": {"tested_on": "NCI-H1650", "procedure,_shortened": "as §1"}, "HCC-15": {"tested_on": "HCC-15", "procedure,_shortened": "as §1"}, "NCI-H2009": {"tested_on": "NCI-H2009", "procedure,_shortened": "as §1"}, "NCI-H2023": {"tested_on": "NCI-H2023", "procedure,_shortened": "as §1"}, "HARA": {"tested_on": "HARA", "procedure,_shortened": "as §1"}, "HCC-78": {"tested_on": "HCC-78", "procedure,_shortened": "as §1"}, "LCLC-103H": {"tested_on": "LCLC-103H", "procedure,_shortened": "as §1"}}, "data": [{"compound": "CCCCCCCCCCCC1=C(O)C(=O)C=C(O)C1=O", "note": "[Embelin] + CC(=O)c1c(C)c2cnc(Nc3ccc(N4CCNCC4)cn3)nc2n(C2CCCC2)c1=O [Palbociclib] (partner 0.5 µM)", "values": [{"measurement": "relative viability", "setting": "A-427; first compound 0.08 µM", "result": 0.525}, {"measurement": "relative viability", "setting": "A-427; first compound 0.8 µM", "result": 0.563}, {"measurement": "relative viability", "setting": "A-427; first compound 2.53 µM", "result": 0.526}, {"measurement": "relative viability", "setting": "A-427; first compound 8 µM", "result": 0.496}, {"measurement": "relative viability", "setting": "NCI-H2126; first compound 0.08 µM", "result": 0.342}, {"measurement": "relative viability", "setting": "NCI-H2126; first compound 0.8 µM", "result": 0.342}, {"measurement": "relative viability", "setting": "NCI-H2126; first compound 2.53 µM", "result": 0.345}, {"measurement": "relative viability", "setting": "NCI-H2126; first compound 8 µM", "result": 0.339}, {"measurement": "relative viability", "setting": "NCI-H460; first compound 0.08 µM", "result": 0.169}, {"measurement": "relative viability", "setting": "NCI-H460; first compound 0.8 µM", "result": 0.227}, {"measurement": "relative viability", "setting": "NCI-H460; first compound 2.53 µM", "result": 0.134}, {"measurement": "relative viability", "setting": "NCI-H460; first compound 8 µM", "result": 0.156}, {"measurement": "relative viability", "setting": "ChaGo-K-1; first compound 0.08 µM", "result": 0.911}, {"measurement": "relative viability", "setting": "ChaGo-K-1; first compound 0.8 µM", "result": 1.01}, {"measurement": "relative viability", "setting": "ChaGo-K-1; first compound 2.53 µM", "result": 1.01}, {"measurement": "relative viability", "setting": "ChaGo-K-1; first compound 8 µM", "result": 0.981}, {"measurement": "relative viability", "setting": "NCI-H1648; first compound 0.08 µM", "result": 0.205}, {"measurement": "relative viability", "setting": "NCI-H1648; first compound 0.8 µM", "result": 0.23}, {"measurement": "relative viability", "setting": "NCI-H1648; first compound 2.53 µM", "result": 0.241}, {"measurement": "relative viability", "setting": "NCI-H1648; first compound 8 µM", "result": 0.297}, {"measurement": "relative viability", "setting": "NCI-H441; first compound 0.08 µM", "result": 0.217}, {"measurement": "relative viability", "setting": "NCI-H441; first compound 0.8 µM", "result": 0.221}, {"measurement": "relative viability", "setting": "NCI-H441; first compound 2.53 µM", "result": 0.193}, {"measurement": "relative viability", "setting": "NCI-H441; first compound 8 µM", "result": 0.195}, {"measurement": "relative viability", "setting": "NCI-H1993; first compound 0.08 µM", "result": 0.641}, {"measurement": "relative viability", "setting": "NCI-H1993; first compound 0.8 µM", "result": 0.674}, {"measurement": "relative viability", "setting": "NCI-H1993; first compound 2.53 µM", "result": 0.721}, {"measurement": "relative viability", "setting": "NCI-H1993; first compound 8 µM", "result": 0.614}, {"measurement": "relative viability", "setting": "RERF-LC-KJ; first compound 0.08 µM", "result": 1.15}, {"measurement": "relative viability", "setting": "RERF-LC-KJ; first compound 0.8 µM", "result": 1.15}, {"measurement": "relative viability", "setting": "RERF-LC-KJ; first compound 2.53 µM", "result": 1.24}, {"measurement": "relative viability", "setting": "RERF-LC-KJ; first compound 8 µM", "result": 0.979}, {"measurement": "relative viability", "setting": "HCC-44; first compound 0.08 µM", "result": 0.951}, {"measurement": "relative viability", "setting": "HCC-44; first compound 0.8 µM", "result": 1.02}, {"measurement": "relative viability", "setting": "HCC-44; first compound 2.53 µM", "result": 0.984}, {"measurement": "relative viability", "setting": "HCC-44; first compound 8 µM", "result": 0.979}, {"measurement": "relative viability", "setting": "NCI-H650; first compound 0.08 µM", "result": 0.272}, {"measurement": "relative viability", "setting": "NCI-H650; first compound 0.8 µM", "result": 0.407}, {"measurement": "relative viability", "setting": "NCI-H650; first compound 2.53 µM", "result": 0.34}, {"measurement": "relative viability", "setting": "NCI-H650; first compound 8 µM", "result": 0.313}, {"measurement": "relative viability", "setting": "SW 1573; first compound 0.08 µM", "result": 0.344}, {"measurement": "relative viability", "setting": "SW 1573; first compound 0.8 µM", "result": 0.498}, {"measurement": "relative viability", "setting": "SW 1573; first compound 2.53 µM", "result": 0.37}, {"measurement": "relative viability", "setting": "SW 1573; first compound 8 µM", "result": 0.422}, {"measurement": "relative viability", "setting": "201T; first compound 0.08 µM", "result": 0.375}, {"measurement": "relative viability", "setting": "201T; first compound 0.8 µM", "result": 0.377}, {"measurement": "relative viability", "setting": "201T; first compound 2.53 µM", "result": 0.391}, {"measurement": "relative viability", "setting": "201T; first compound 8 µM", "result": 0.353}, {"measurement": "relative viability", "setting": "LCLC-97TM1; first compound 0.08 µM", "result": 0.184}, {"measurement": "relative viability", "setting": "LCLC-97TM1; first compound 0.8 µM", "result": 0.215}, {"measurement": "relative viability", "setting": "LCLC-97TM1; first compound 2.53 µM", "result": 0.262}, {"measurement": "relative viability", "setting": "LCLC-97TM1; first compound 8 µM", "result": 0.242}, {"measurement": "relative viability", "setting": "NCI-H1734; first compound 0.08 µM", "result": 0.347}, {"measurement": "relative viability", "setting": "NCI-H1734; first compound 0.8 µM", "result": 0.349}, {"measurement": "relative viability", "setting": "NCI-H1734; first compound 2.53 µM", "result": 0.392}, {"measurement": "relative viability", "setting": "NCI-H1734; first compound 8 µM", "result": 0.346}, {"measurement": "relative viability", "setting": "COR-L23; first compound 0.08 µM", "result": 0.346}, {"measurement": "relative viability", "setting": "COR-L23; first compound 0.8 µM", "result": 0.351}, {"measurement": "relative viability", "setting": "COR-L23; first compound 2.53 µM", "result": 0.313}, {"measurement": "relative viability", "setting": "COR-L23; first compound 8 µM", "result": 0.299}, {"measurement": "relative viability", "setting": "HCC-366; first compound 0.08 µM", "result": 0.35}, {"measurement": "relative viability", "setting": "HCC-366; first compound 0.8 µM", "result": 0.391}, {"measurement": "relative viability", "setting": "HCC-366; first compound 2.53 µM", "result": 0.49}, {"measurement": "relative viability", "setting": "HCC-366; first compound 8 µM", "result": 0.453}, {"measurement": "relative viability", "setting": "LOU-NH91; first compound 0.08 µM", "result": 0.551}, {"measurement": "relative viability", "setting": "LOU-NH91; first compound 0.8 µM", "result": 0.556}, {"measurement": "relative viability", "setting": "LOU-NH91; first compound 2.53 µM", "result": 0.542}, {"measurement": "relative viability", "setting": "LOU-NH91; first compound 8 µM", "result": 0.52}, {"measurement": "relative viability", "setting": "NCI-H1650; first compound 0.08 µM", "result": 0.358}, {"measurement": "relative viability", "setting": "NCI-H1650; first compound 0.8 µM", "result": 0.406}, {"measurement": "relative viability", "setting": "NCI-H1650; first compound 2.53 µM", "result": 0.38}, {"measurement": "relative viability", "setting": "NCI-H1650; first compound 8 µM", "result": 0.354}, {"measurement": "relative viability", "setting": "HCC-15; first compound 0.08 µM", "result": 0.703}, {"measurement": "relative viability", "setting": "HCC-15; first compound 0.8 µM", "result": 0.757}, {"measurement": "relative viability", "setting": "HCC-15; first compound 2.53 µM", "result": 0.857}, {"measurement": "relative viability", "setting": "HCC-15; first compound 8 µM", "result": 0.774}, {"measurement": "relative viability", "setting": "NCI-H2009; first compound 0.08 µM", "result": 0.223}, {"measurement": "relative viability", "setting": "NCI-H2009; first compound 0.8 µM", "result": 0.277}, {"measurement": "relative viability", "setting": "NCI-H2009; first compound 2.53 µM", "result": 0.208}, {"measurement": "relative viability", "setting": "NCI-H2009; first compound 8 µM", "result": 0.186}, {"measurement": "relative viability", "setting": "NCI-H2023; first compound 0.08 µM", "result": 0.379}, {"measurement": "relative viability", "setting": "NCI-H2023; first compound 0.8 µM", "result": 0.345}, {"measurement": "relative viability", "setting": "NCI-H2023; first compound 2.53 µM", "result": 0.455}, {"measurement": "relative viability", "setting": "NCI-H2023; first compound 8 µM", "result": 0.351}, {"measurement": "relative viability", "setting": "HARA; first compound 0.08 µM", "result": 0.269}, {"measurement": "relative viability", "setting": "HARA; first compound 0.8 µM", "result": 0.324}, {"measurement": "relative viability", "setting": "HARA; first compound 2.53 µM", "result": 0.301}, {"measurement": "relative viability", "setting": "HARA; first compound 8 µM", "result": 0.32}, {"measurement": "relative viability", "setting": "HCC-78; first compound 0.08 µM", "result": 0.514}, {"measurement": "relative viability", "setting": "HCC-78; first compound 0.8 µM", "result": 0.446}, {"measurement": "relative viability", "setting": "HCC-78; first compound 2.53 µM", "result": 0.558}, {"measurement": "relative viability", "setting": "HCC-78; first compound 8 µM", "result": 0.48}, {"measurement": "relative viability", "setting": "LCLC-103H; first compound 0.08 µM", "result": 0.496}, {"measurement": "relative viability", "setting": "LCLC-103H; first compound 0.8 µM", "result": 0.459}, {"measurement": "relative viability", "setting": "LCLC-103H; first compound 2.53 µM", "result": 0.461}, {"measurement": "relative viability", "setting": "LCLC-103H; first compound 8 µM", "result": 0.511}]}]}
